According to the supplement of paper PMC10307832:

Columns and labels:
Experiment in all cases: relative viability (nuclei count vs DMSO), 5 days (fraction); higher = more cells survive
Bortezomib + Palbociclib = compound: CC(C)C[C@H](NC(=O)[C@H](Cc1ccccc1)NC(=O)c1cnccn1)B(O)O [Bortezomib] + CC(=O)c1c(C)c2cnc(Nc3ccc(N4CCNCC4)cn3)nc2n(C2CCCC2)c1=O [Palbociclib] (partner 0.5 µM)
Summary of the method: (§1)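 For relative viability, nuclei counts in treated wells were divided by those in vehicle wells. Lung cancer cell lines had been pin-tool dosed in 1536-well plates the day after seeding and cultured for 5 days, then fixed and stained in one step (final 0.05% Triton X-100, 1% formaldehyde, 1 ug/ml Hoechst) and imaged at 4×. Doses were one drug alone or a fixed anchor-drug dose plus five library-drug doses (not always all listed) in √10 steps, and values are duplicate-plate medians.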

Bortezomib + Alpelisib = compound: CC(C)C[C@H](NC(=O)[C@H](Cc1ccccc1)NC(=O)c1cnccn1)B(O)O [Bortezomib] + Cc1nc(NC(=O)N2CCC[C@H]2C(N)=O)sc1-c1ccnc(C(C)(C)C(F)(F)F)c1 [Alpelisib] (partner 2 µM)
Summary of the method: as §1

[1] = compound: CC1=CC(=NN1)NC2=CC(=NC(=N2)/C=C/C3=CC=CC=C3)N4CCN(CC4)C + CS(=O)(=O)CCNCc1ccc(-c2ccc3ncnc(Nc4ccc(OCc5cccc(F)c5)c(Cl)c4)c3c2)o1 [Lapatinib] (partner 2 µM)
Summary of the method: as §1

Obatoclax + Phenformin = compound: COC1=CC(c2cc3ccccc3[nH]2)=N/C1=C\c1[nH]c(C)cc1C [Obatoclax] + N=C(N)NC(=N)NCCc1ccccc1 [Phenformin] (partner 250 µM)
Summary of the method: as §1

Row | Cell Line | relative viability (Bortezomib + Palbociclib; first compound 0.0002 µM) | relative viability (Bortezomib + Palbociclib; first compound 0.000632 µM) | relative viability (Bortezomib + Palbociclib; first compound 0.002 µM) | relative viability (Bortezomib + Palbociclib; first compound 0.006325 µM) | relative viability (Bortezomib + Palbociclib; first compound 0.02 µM) | relative viability (Bortezomib + Alpelisib; first compound 0.0002 µM) | relative viability (Bortezomib + Alpelisib; first compound 0.000632 µM) | relative viability (Bortezomib + Alpelisib; first compound 0.002 µM) | relative viability (Bortezomib + Alpelisib; first compound 0.006325 µM) | relative viability (Bortezomib + Alpelisib; first compound 0.02 µM) | relative viability ([1]; first compound 0.08 µM) | relative viability ([1]; first compound 0.253 µM) | relative viability ([1]; first compound 0.8 µM) | relative viability ([1]; first compound 2.53 µM) | relative viability ([1]; first compound 8 µM) | relative viability (Obatoclax + Phenformin; first compound 0.01 µM) | relative viability (Obatoclax + Phenformin; first compound 0.03162 µM) | relative viability (Obatoclax + Phenformin; first compound 0.1 µM) | relative viability (Obatoclax + Phenformin; first compound 0.3162 µM) | relative viability (Obatoclax + Phenformin; first compound 1 µM)
1 | NCI-H1651 | 0.505 | 0.504 | 0.401 | 0.113 | 0.103 | 1 | 0.87 | 0.748 | 0.114 | 0.0938 | 0.924 | 0.941 | 0.803 | 0.313 | 0.123 | 0.384 | 0.324 | 0.386 | 0.252 | 0.184
2 | RERF-LC-KJ | 1.18 | 1.03 | 1.05 | 0.224 | 0.19 | 0.8 | 0.782 | 0.815 | 0.477 | 0.212 | 0.878 | 0.875 | 0.839 | 0.716 | 0.292 | 0.37 | 0.441 | 0.459 | 0.45 | 0.434
3 | NCI-H1755 | 0.426 | 0.438 | 0.452 | 0.263 | 0.248 | 0.944 | 0.926 | 0.951 | 0.178 | 0.139 | 1.06 | 1.12 | 1.01 | 0.535 | 0.143 | 0.622 | 0.6 | 0.492 | 0.634 | 0.541
4 | NCI-H2170 | 0.376 | 0.394 | 0.402 | 0.221 | 0.125 | 0.637 | 0.687 | 0.904 | 0.232 | 0.14 | 0.277 | 0.255 | 0.244 | 0.199 | 0.166 | 0.362 | 0.414 | 0.396 | 0.419 | 0.437
5 | NCI-H2126 | 0.365 | 0.349 | 0.369 | 0.328 | 0.208 | 0.765 | 0.758 | 0.741 | 0.737 | 0.206 | 0.729 | 0.813 | 0.713 | 0.629 | 0.464 | 0.544 | 0.517 | 0.504 | 0.526 | 0.454
6 | EPLC-272H | 0.307 | 0.29 | 0.304 | 0.111 | 0.0584 |  |  | 1.09 | 0.943 | 0.115 | 0.893 | 0.99 | 0.868 | 0.462 | 0.157 | 0.255 | 0.277 | 0.351 | 0.225 | 0.158
7 | NCI-H1975 | 0.663 | 0.517 | 0.138 | 0.1 | 0.106 | 0.696 | 0.615 | 0.163 | 0.127 | 0.108 | 0.933 | 0.923 | 0.894 | 0.203 | 0.149 | 0.438 | 0.427 |  | 0.355 | 0.228
8 | NCI-H3122 | 0.197 | 0.204 | 0.205 | 0.135 | 0.102 | 0.796 | 0.718 | 0.798 | 0.59 | 0.17 | 0.971 | 0.859 | 1.03 | 0.925 | 0.897 | 0.385 | 0.404 | 0.317 | 0.386 | 0.351
9 | COR-L 105 | 0.439 | 0.381 | 0.345 | 0.378 | 0.355 | 0.911 | 1.04 | 0.909 | 0.237 | 0.227 | 0.335 | 0.341 | 0.338 | 0.23 | 0.223 | 0.4 | 0.53 | 0.637 | 0.333 | 0.266
10 | BEN | 0.443 | 0.461 | 0.489 | 0.445 | 0.236 | 0.925 | 1.09 | 0.72 | 0.614 | 0.154 | 0.75 | 0.668 | 0.742 | 0.326 | 0.229 | 0.287 | 0.224 |  | 0.286 | 0.277
11 | NCI-H1915 | 0.476 | 0.519 | 0.54 | 0.118 | 0.0404 | 1.05 | 1.03 | 0.892 | 0.81 | 0.0434 | 0.972 | 1.01 | 0.954 | 0.453 | 0.514 | 0.361 | 0.362 | 0.337 | 0.363 | 0.343
12 | NCI-H2009 | 0.241 | 0.205 | 0.176 | 0.0661 | 0.0466 | 1.13 | 1.19 | 1.14 | 0.543 | 0.0447 | 0.907 | 0.628 | 1.03 | 0.451 | 0.189 | 0.472 | 0.507 | 0.385 | 0.27 | 0.194
13 | COR-L23 | 0.308 | 0.274 | 0.183 | 0.0534 | 0.0546 | 0.825 | 0.698 | 0.444 | 0.0416 | 0.0432 | 0.98 | 1.51 | 1.1 | 0.22 | 0.0755 | 0.443 | 0.479 | 0.425 | 0.328 | 0.216
14 | NCI-H460 | 0.181 | 0.283 | 0.155 | 0.0455 | 0.0161 | 0.419 | 0.455 | 0.515 | 0.125 | 0.0093 | 0.909 | 0.952 | 0.943 | 0.0124 | 0.0122 | 0.448 | 0.53 | 0.441 | 0.25 | 0.112
15 | HCC-827 | 0.496 | 0.626 | 0.467 | 0.197 | 0.137 | 1.12 | 0.948 | 0.8 | 0.149 | 0.126 | 0.201 | 0.168 | 0.212 | 0.146 | 0.124 | 0.424 | 0.409 | 0.46 | 0.373 | 0.435
16 | NCI-H322M | 0.486 | 0.448 | 0.463 | 0.441 | 0.404 | 0.771 |  | 0.713 | 0.731 | 1.38 | 0.56 | 0.67 | 0.507 | 0.321 | 0.208 | 0.855 | 0.603 |  | 0.824 | 0.62
